Experiments:
[1] = system: Treg cells and CD3+ T cells in dura, TG and DRG; assay: Immunohistochemistry of CD3+ T cells and EGFP+ Treg cells in dura, TG, DRG and cervical/medullary dorsal horn; format: in vivo, mouse
Protocol: Tissue preparation, immunohistochemistry, and image analysis. Mice were euthanized with i.p. injection of barbiturate (200 mg/kg) and were transcardially perfused with warm 0.1 M phosphate buffered saline (pH 7.2) followed by cold 4% formaldehyde in 0.1 M phosphate buffer (pH 7.2) for fixation. Trigeminal ganglia, lumbar L4 DRG, and the tissues containing the cervical/medullary dorsal horn (from obex to C3 cervical spinal cord) were collected and sectioned at […] in the transverse plane, collected on Superfrost Plus glass slides in sequence and stored at […]
The dura was carefully dissected from the skull using forceps and stained as whole mount. T cells were identified by the rat anti-CD3 antibody (clone 17A2, 1:200; eBioscience, San Diego, CA), and Treg cells were identified with the chicken anti-EGFP (1:1000; AVES Lab, Tigard, OR) antibody in tissues from DEREG mice. […] To quantify CD31 T cells and Treg cells on the dura, we took random, nonoverlapping images (10 per mouse) in areas adjacent to the middle meningeal artery (MMA). To quantify T cells and Treg cells in TG, DRG, and cervical/medullary dorsal horn, all cells on individual sections were counted, and the number was multiplied by 4 to obtain the total number of cells per ganglion in each mouse. […] Representative images were adjusted for contrast and brightness using the same parameter within individual experiments. No other manipulations were made to the images. Image analysis was performed with experimenters blinded to the experimental groups.

[2] = system: NTG-induced skin hypersensitivity in mice; assay: Mouse model of chronic migraine (repetitive NTG): hindpaw and facial von Frey thresholds, cheek acetone test; format: in vivo
Protocol: Mouse model of chronic migraine and drug treatments: After measuring baseline nociceptive responses, mice received repetitive intraperitoneal (i.p.) injections of NTG (10 mg/kg in saline with 1% propylene glycol) or vehicle (saline with 1% propylene glycol in saline, 10 mL/kg) every 2 days for 4 or more times as described previously (Pradhan A A, et al. PAIN 2014; 155:269-74). Nocifensive behaviors were measured 2 days after each injection (before the next treatment). NTG (SDM27; Copperhead Chemical, Tamaqua, PA) was freshly diluted from the stock (10% in propylene glycol, aliquoted in airtight glass vials and stored at 4° C.) with saline for every injection. Recombinant mouse IL2 (carrier-free; Biolegend, San Diego, CA) was freshly diluted from the stock (1 mg/mL aliquots at […]) every day. Each mouse received daily i.p. injection of […] IL2 in […] saline. The control mice received daily i.p. injections of […] saline. In Treg depletion experiment, mice received 1 i.p. injection of antibodies against CD25 ([…], BP0012; BioXcell, West Lebanon, NH11) or control IgG (BP0088; BioXcell). The antibody binds to CD25 on Treg cell membrane and depletes Treg cells through Fcg receptor III-mediated antibody-dependent cellular cytotoxicity and antibody-dependent cellular phagocytosis (Setiady Y Y, et al, Eur J Immunol 2010; 40:780-6). Note that on the days that the mouse behaviors were tested, NTG, IL2 and/or antibodies were always injected after completing the behavioral tests.
(§1) Responses to mechanical stimuli on the hindpaw. Mice were habituated in individual clear plexiglass boxes (11×11×15 cm) for 1 to 2 hours. A series of calibrated von Frey filaments was used to apply mechanical stimuli to the plantar surface of the hindpaws. The up-down paradigm was used to determine the 50% withdrawal threshold. The thresholds for both hindpaws were averaged to yield a single value for each mouse.
Cheek acetone test. The acute nocifensive response to acetone-evoked evaporative cooling on mouse cheek was measured as previously described (Constandil L, et al. J Pain 2012; 13:579-89). The day before testing, both cheeks were shaved (6.5×12 mm) under brief anesthesia (2% isoflurane in 100% oxygen). On the test day, mice were habituated in individual plexiglass cylinders (11-cm diameter, 15-cm height) situated in front of 3-way mirrors for 1 to 2 hours. Acetone ([…]) was applied to the shaved cheeks and immediately returned mice to the cylinders. Time spent wiping the treated area was recorded by a video camera and quantified offline. For individual mice, acetone was applied alternatingly to both cheeks at 10-minute intervals, and the duration of behavior was averaged from 4 applications.
Withdrawal responses to facial mechanical stimuli. The hair on mouse forehead (above and between 2 eyes) was shaved the day before testing. On the test day, the experimenter gently held the mouse on the palm with minimal restraint and applied the calibrated von Frey filament perpendicularly to the shaved skin, causing the filament to bend for 5 seconds. A positive response was determined by the following criteria as previously described: mouse vigorously stroked its face with the forepaw, head withdrawal from the stimulus, or head shaking (Elliott M B et al., Headache 2012; 52:966-84). The up-down paradigm was used to determine the 50% withdrawal threshold. […]

[3] = system: nerve injury-induced punctate and dynamic allodynia; conditions: cited from earlier work
[4] = system: NTG/NO donor- or mTBI-induced cutaneous allodynia in rodents; conditions: cited from earlier work; for persistent cephalic mechanical hypersensitivity induced by repeated isosorbide dinitrate: Dallel R, et al., Cephalalgia 2018
[5] = system: sumatriptan-induced cutaneous hypersensitivity in mice; assay: Mouse model of medication overuse headache (repeated sumatriptan); format: in vivo; conditions: daily sumatriptan 0.6 mg/kg i.p.; male and female C57BL/6J
Protocol: Mouse model of medication overuse headache. After measuring baseline nociceptive responses, mice received daily i.p. injections of sumatriptan succinate (0.6 mg/kg; Fresenius Kabi, Lake Zurich, IL44). Daily ld-IL2 or saline were administered after mice received 2 sumatriptan injections. Facial and hindpaw mechanical thresholds were measured every 2 days. Note that on the days that the mouse behaviors were tested, sumatriptan and/or IL2 were always injected after completing the behavioral tests.
as §1
Withdrawal responses to facial mechanical stimuli. The hair on mouse forehead (above and between 2 eyes) was shaved the day before testing. On the test day, the experimenter gently held the mouse on the palm with minimal restraint and applied the calibrated von Frey filament perpendicularly to the shaved skin, causing the filament to bend for 5 seconds. A positive response was determined by the following criteria as previously described: mouse vigorously stroked its face with the forepaw, head withdrawal from the stimulus, or head shaking (Elliott M B et al., Headache 2012; 52:966-84). The up-down paradigm was used to determine the 50% withdrawal threshold.

O=[N+]([O-])OCC(CO[N+](=O)[O-])O[N+](=O)[O-] [NTG, nitroglycerin, reference compound]
increase in total CD3+ cells in TG ([1]; repeated NTG): 2 fold
proportion of Treg cells among total T cells in TG ([1]; repeated NTG administration): significantly reduced
density of CD3+ T cells in the dura surrounding the MMA or in L4 DRG ([1]; repeated NTG, C57BL/6J): not altered
CD3+ cells per TG ([1]; repeated NTG, female C57BL/6J, n=6): 4135±562 cells per TG
reduction of the ratio of Treg cells among CD3+ T cells in mouse TG ([1]; repeated injections of NTG): 50%
total number of EGFP+ Treg cells in TG and DRG ([1]; repetitive NTG injections, female DEREG mice): neither was significantly altered
mechanical threshold at the periorbital region ([2]; 2 days after the first NTG injection, female Swiss Webster): substantially reduced
50% withdrawal thresholds to von Frey filaments on the hindpaws ([2]; NTG 10 mg/kg i.p. every 2 days for 5 times, male and female C57BL/6J): induced a progressive and sustained mechanical hypersensitivity
facial mechanical threshold 3 hours after systemic NTG ([2]; NTG 10 mg/kg i.p., naive C57BL/6J, day 1): significantly reduced
time facial mechanical hypersensitivity was sustained by repeated NTG injections ([2]; male C57BL/6J): at least 4 weeks
duration of acetone-induced cheek wiping ([2]; repeated NTG, female C57BL/6J): persistent increase
duration of acetone-induced cheek wiping ([2]; repetitive NTG, female Swiss Webster): gradual increase

CN1CC[C@]23c4c5ccc(O)c4O[C@H]2[C@@H](O)C=C[C@H]3[C@H]1C5 [morphine]
nerve injury-induced punctate allodynia, early stage ([3]; <2 weeks post-injury): attenuates
nerve injury-induced dynamic allodynia ([3]; all stages): does not respond
nerve injury-induced punctate allodynia, late stage ([3]; late stage): not late stage

NCCCC[C@H](NC(=O)[C@@H](Cc1cc(Br)c(O)c(Br)c1)NC(=O)N1CCC(N2Cc3ccccc3NC2=O)CC1)C(=O)N1CCN(c2ccncc2)CC1 [olcegepant]
persistent cephalic mechanical hypersensitivity induced by repeated isosorbide dinitrate [4]: neither sumatriptan nor CGRP receptor antagonist olcegepant prevents

CC(C)NCC(O)COc1cccc2ccccc12 (stereo not drawn) [propranolol]
persistent facial mechanical hypersensitivity from repeated enhancing of NO signaling ([4]; previous studies): can be blocked

CNS(=O)(=O)Cc1ccc2[nH]cc(CCN(C)C)c2c1 [sumatriptan, sumatriptan succinate]
persistent cephalic mechanical hypersensitivity induced by repeated isosorbide dinitrate [4]: neither sumatriptan nor CGRP receptor antagonist olcegepant prevents
NTG-induced acute cutaneous allodynia and central sensitization ([4]; rodents): can be blocked
facial and hindpaw mechanical sensitivity [5]: persistent facial and hindpaw mechanical hypersensitivity

CC1(C)O[C@@H]2[C@@H](CO[C@@]3(COS(N)(=O)=O)OC(C)(C)O[C@@H]23)O1 [topiramate]
NTG-enhanced behavioral responses to acetone-induced cooling of facial skin ([4]; daily treatment, mice): can be blocked
